Like-named read-outs stand apart in the source and are kept apart here.
Assays:
[1] = molecular target: T1, hemagglutinin (Influenza A virus (A/X-31(H3N2)), UniProt P03438); assay: Binding site by crystallography (preliminary)
T1 construct: HA1 and HA2 cleaved from precursor HA0

C22 virus in MDCK2 cells = assay: microbe, parasite or virus in culture; conditions: unidentified influenza virus; for inhibition at 1 µM / inhibition at 10 µM / inhibition at 100 µM: MDCK2, 15 h, read-out: infectivity % inhibition
low pH BHA = assay: SPA POST control (nonspecific quenching); set-up: species or system C22 / X31 influenza virus (H3N2)
Method: The compounds being screened by SPA are present during scintillation counting. Some of the chemicals, particularly those that are highly colored, quench the detection of radioactivity. A control ("POST") distinguishes whether apparent inhibition arises from inhibition of the conformational change or from nonspecific effects. The test compound is added to a sample of BHA that had previously been acidified and reneutralized. The mixture is then precipitated as usual. Since the BHA treated in this manner is known to be in the low pH conformation, a reduction in measurable cpm compared to controls with ligand omitted proves the compound interferes with the detection system.
^3 H-Leu BHA was diluted to 10,000 cpm (counts per minute) per 200 μl in MSSH buffer (10 mM HEPES, 10 mM MES, 10 mM succinate, 0.10 M NaCl, pH 7.0) containing 0.1% NP40. Protein was incubated with the specified concentration of trial compound for 25 minutes at RT. The same volume of solvent used to dissolve the compound was added to control samples and the final concentration of DMSO in all solutions was 0.67% v/v. A predetermined amount of 1N HAc was added to bring the reactions to the appropriate pH (usually pH 5.0). Following a 5 minute (unless specified otherwise) incubation at RT, reactions were reneutralized with 1N NaOH. For POST controls, compounds were added to the appropriate concentration after reneutralization. 200 μL aliquots of the protein solution were added to scintillation vials containing 100 μl protein A-SPA beads (Amersham), 5% fetal bovine serum (FBS), and antibody. Vials were incubated overnight at RT with constant shaking. Each reaction used 10 μl of fusion peptide antiserum diluted 1:10 with 50% glycerol. Cpm were detected in a Beckman LS3801 scintillation counter without addition of liquid scintillant.
Apparent inhibition due to nonspecific effects was quantitated from the POST controls with the equation:
observed cpm=true cpm*quench factor

hemoglobin = assay: Hb control (quenching of OD570 of hemoglobin); set-up: species or system human
[2] = test system: hemagglutinin-mediated hemolysis of human red blood cells; assay: Hemolysis (HEM) assay; assay type: cell-based, C22 influenza virus; human red blood cells; conditions: for inhibition at 100 µM: log conc -4 (M)
HIV-1 fusion protein = HIV-1 fusion protein (Human immunodeficiency virus type 1 group M subtype B, UniProt P04578); assay: Inhibition of fusion mediated by the HIV-1 fusion protein; assay type: cell-based
[3] = test system: influenza-mediated syncytia formation, CV-1 cells
in vitro = conditions: dog, mdck
Method: The ELISA-based assay described below (EIA antiviral assay) was used to measure antiviral activity. Cell viability was measured in parallel to distinguish inhibition of viral replication from toxicity.
Infections of MDCK2 cells with virus, compounds, and DMSO were set up identically as for the EIA assay. Following the 15 hour incubation, test compounds were washed away with PBS. 50 μl of MDCK2 growth media and 25 μl 2 mg/ml 3-(4,5-dimethylthiazol-2-yl)-2,5-diphenyl tetrazolium bromide (Sigma) in PBS were added to each well. Plates were returned to 37° C., 5% CO2 for 4 hrs. Crystals were broken up by vigorous mixing following addition of 80 μl isopropanol/0.04 N HCl. After incubation for 30 mins at RT, OD570 was read on an ELISA reader. % Inhibition is the % reduction of OD570 in the wells infected with compound compared to otherwise identical samples with compound omitted.

[4] = test system: influenza-mediated syncytia formation, CV-1 cells; assay: cells; conditions: unidentified influenza virus, CV-1, read-out: IC50 syncytia
[5] = MDCK2, read-out: IC50 infectivity
[6] = MDCK2, read-out: INF, negative log of IC50 (converted)
[7] = unidentified influenza virus, Erythrocyte, 0.25 h, Table 6, 10^-3 = 1 mM, low pH 15 minutes, read-out: IC50 hemolysis
[8] = unidentified influenza virus, Erythrocyte, Table 7, read-out: HEM, negative log of IC50 (converted)
[9] = unidentified influenza virus, Erythrocyte, read-out: hemolysis % ↓ OD

Row | SMILES | inhibition at 1 µM (C22 virus in MDCK2 cells) | inhibition at 10 µM (C22 virus in MDCK2 cells) | inhibition at 100 µM (C22 virus in MDCK2 cells) | IC50 (C22 virus in MDCK2 cells; [5]) | IC50 (C22 virus in MDCK2 cells; [6]) | Hb control % ↓ OD (hemoglobin; log conc -4 (M)) | IC50 [2, 7] | IC50 [2, 8] | inhibition at 100 µM [2, 9] | cytotoxicity at 15 h, 1 µM (in vitro) | cytotoxicity at 15 h, 10 µM (in vitro) | cytotoxicity at 15 h, 100 µM (in vitro) | also measured
1 | O=C1C=CC(=O)c2ccccc21 [Compound 90, 1,4-naphthoquinone] | -3.3 ± 2.4% | 81.7 ± 2.2% | 96.9% | 10 µM | 10 µM | 57.1% | 1 mM | 1 mM | 33.1% | -6.7 ± 7.3% | 33 ± 9.9% | 96.8 ± 3.8% | binding site (preliminary crystallographic results) [1]: binding to hemagglutinin at a site in the hinge region of the trimer; % inhibition, POST control (low pH BHA; log conc -3 (M)): 68.2%; % inhibition, POST control (low pH BHA; log conc -4 (M)): 30.8%; % inhibition, POST control (low pH BHA; log conc -5 (M)): 4.6%; Hb control % ↓ OD (hemoglobin; log conc -3 (M)): 68.1%; Hb control % ↓ OD (hemoglobin; log conc -5 (M)): 24.9%; inhibition at 1000 µM ([2]; unidentified influenza virus, Erythrocyte, log conc -3 (M), read-out: hemolysis % ↓ OD): 90.3%; inhibition at 10 µM ([2]; unidentified influenza virus, Erythrocyte, log conc -5 (M), read-out: hemolysis % ↓ OD): 4.7%; IC50 (HIV-1 fusion protein): 2000 nM; syncytia, Table 6 ([3]; Table 6): morph
2 | O=C1C=C(O)C(=O)c2ccccc21 [Compound 120, 2-hydroxy-1,4-naphthoquinone] | 7.1 ± 6.7% | 4.7 ± 0.9% | -2.3 ± 3.1% | > 1000 µM | > 1000 µM | 4.4% | > 0.1 mM | > 0.1 mM | 6.2% | 0.5 ± 0.3% | -6 ± 5% | -7 ± 4.4% | inhibition of hemolytic activity [2]: did not; inhibition of syncytia formation ([3]; 10 μM): Significant inhibition was not observed; IC50 [4]: > 10 µM
